Data on three compounds can be found in patent US20060040861A1, “Method of treating, preventing, and diagnosing prostate cancer” (priority 2004, published 2006).

What all share (assay type): cell-based, human
The test system of assay [1] is DU145 cells. The assay can be described thus: MTT assay (cell growth / viability). The following applies: 0-1.92 μg/ml, 5 days. As to the method: (§1) DU145 (1×10^3/well), PC-3 (1×10^3/well) and LNCaP-FGC (1.5×10^3/well) cells were seeded in 96-well plates 24 hours prior to serum starvation. Cells were starved of serum for 24 hours and then incubated in the serum-free medium with or without 12.5 μg/ml leptin for 5 days. 3-(4,5-dimethylthiazol-2-yl)-2,5-diphenyl tetrazolium bromide (MTT) was added to each well to a concentration of 0.5 mg/ml. After 3-hour incubation at 37° C., cells were lysed in 50% dimethylformamide and 20% SDS at 37° C. Optical densities (O.D.) at 550 nm and 670 nm were measured by a plate reader, and differential O.D. between 550 nm and 670 nm (O.D. 550 nm minus O.D. 670 nm) were determined. Each experiment was performed in quadruplicate, and the values are reported as mean±SD.
(§2) DU145 (0.5-1.0×10^3/well), PC-3 (0.5-1.0×10^3/well), and LNCaP FGC (0.75-1.5×10^3/well) cells were seeded in 96-well plates 24 hours prior to serum starvation. Cells were starved of serum for 24 hours and then incubated in the serum-free medium with or without cytokine(s), DHT and/or doxorubicin at indicated concentrations for 5 days. MTT was added to each well to a concentration of 0.5 mg/ml. After being incubated at 37° C. for 3 hours, cells were lysed in 50% dimethylformamide and 20% SDS at 37° C. Optical densities (OD) at 550 and 670 nm were measured by a plate reader, and differential OD between 550 and 670 nm (OD 550 minus OD 670 nm) were determined. Each experiment was performed in quadruplicate, and the values were reported as mean±S.D.
Sucrose gradients were set up in 2.2-ml centrifuge tubes (Beckman Coulter, Inc., Fullerton, Calif.) by layering 5, 10, 15 and 20% (w/v) sucrose in velocity sedimentation buffer (10 mM HEPES, pH 8; 125 mM NaCl). Gradients were then equilibrated overnight at 4° C. Twenty micrograms of f-adiponectin in 200 μl of velocity sedimentation buffer containing 5 μl of HMW-Native protein marker kit (GE Healthcare, Piscataway, N.J.) set to 0.5 μg/μl albumin was overlayed onto the sucrose gradients and spun in a Beckman TLS-55 rotor at 55,000 rpm for 5 hours at 4° C. Fractions (150 μl each) were sequentially collected from the top to the bottom; aliquots were removed and used immediately in the MTT assay. The remaining material was stored at −80° C. for Western blot analysis with anti-adiponectin antibody and SDS-PAGE with silver staining. For the MTT assay, DU145 cells (0.5×1 03/well) were serum-starved and incubated in triplicate in 60 μl of the serum-free medium plus 30 μl of each fraction. For Western blot analysis, 0.5 μl of each fraction was electrophoresed on a 10% SDS-polyacrylamide gel and electrotransferred to a polyvinylidene difluoride membrane. The membrane was washed, blocked, and hybridized with the anti-adiponectin antibody. Bands were visualized using a Lumiglo reagent (Cell Signaling Technology, Inc., Beverly, Mass.). For SDS-PAGE, 20 μl of each fraction was electrophoresed on a 10% SDS-polyacrylamide gel, followed by silver staining using the Silver Stain kit (Bio-Rad Laboratories, Inc., Hercules, Calif.) to visualize molecular weight markers.
(Tetrazolium assays rely on reduction of a dye to a coloured formazan, in cell work by metabolically active cells.)

Assay [2] concerns LNCaP-FGC cells. Put plainly: MTT assay (cell growth / viability). The following applies: 0-1.92 μg/ml, 5 days. As for the experimental part: as §1, §2
In assay [3] the test system is PC-3 cells. Put plainly: MTT assay (cell growth / viability). The following applies: 0-1.92 μg/ml, 5 days. As for the experimental part: as §1, §2
The test system of assay [4] is DU145 cells. The assay can be described thus: [3H] thymidine incorporation assay. As to conditions: DU145, serum-deprived; leptin up to 12.5 μg/ml, IL-6 100 ng/ml or IGF-I 100 ng/ml; 20 hours. As for the experimental part: (§3) DU145 (1.5×10^5/well), PC-3 (1.0×10^5/well) and LNCaP-FGC (2.0×10^5/well) cells were seeded into 24-well plates 24 hours before serum-starvation. Cells were deprived of serum for 48 hours, followed by incubation with leptin at indicated concentrations or 100 ng/ml IL-6 for 20 hours. In some experiments, cells were pretreated with SP600125 prior to cytokine stimulation as described below. Cells in each well were pulsed with 1 μCi of [^3H] thymidine (Amersham Pharmacia Biotech Inc., Piscataway, N.J., USA) during the final 5 hours, washed once with PBS, fixed with cold 5% trichloroacetic acid, solubilized with 0.25 M NaOH, and counted in scintillant. Each experiment was performed in quadruplicate, and the values are reported as mean±SD.
(§4) SP600125 was dissolved in DMSO to make a stock solution. Eighty-percent confluent prostate cancer cells were serum-starved for 24 hours and pretreated with SP600125 at indicated concentrations for 30 minutes, followed by leptin treatment (12.5 μg/ml): 15 minutes for Western blot analysis or 20 hours for thymidine incorporation assays. DMSO-treated cells were employed as controls.
On the technique in general: Incorporation of labelled thymidine or its analogues reports DNA synthesis.

Assay [5] deals with PC-3 cells. The assay can be described thus: [3H] thymidine incorporation assay. The following applies: PC-3, serum-deprived; leptin up to 12.5 μg/ml, IL-6 100 ng/ml or IGF-I 100 ng/ml; 20 hours. As to the method: as §3, §4
The subject of assay [6] is LNCaP-FGC cells. The assay can be described thus: [3H] thymidine incorporation assay. As to conditions: serum-deprived, leptin up to 12.5 μg/ml, IL-6 100 ng/ml or IGF-I 100 ng/ml, 20 hours. As for the experimental part: as §3

In the case of `COc1cccc2c1C(=O)c1c(O)c3c(c(O)c1C2=O)C[C@@](O)(C(=O)CO)C[C@@H]3O[C@H]1C[C@H](N)[C@H](O)[C@H](C)O1` [doxorubicin, reference compound], the “cell growth (MTT), doxorubicin alone” value in the assay with DU145 cells [1], in the assay on LNCaP-FGC cells [2] and in the assay with PC-3 cells [3] was “suppressed cell growth in a dose-dependent manner” in each case.
As for “IGF-I: Recombinant human IGF-I from R&D Systems; adipose cytokine”, the figures for the “[3H] thymidine incorporation (cell proliferation), cytokine alone” value in the assay on DU145 cells [4], with PC-3 cells [5] and in the assay on LNCaP-FGC cells [6] were “augmented cell proliferation”, “augmented cell proliferation” and “did not affect”, respectively.
As for “IL-6: Recombinant human IL-6 purchased from R&D Systems; adipose cytokine”, the “[3H] thymidine incorporation (cell proliferation), cytokine alone” value was “stimulated cell proliferation” in the assay on DU145 cells [4], “stimulated cell proliferation” with PC-3 cells [5] and “inhibited” in the assay on LNCaP-FGC cells [6].
